# Target: AM2 S31 (wild-type serine at position 31 in the M2 protein), influenza virus A/Udorn/72 (Influenza A virus, UniProt P0DOF5)
# Test: cell-based
# Settings: 100 uM; Xenopus oocytes; activity range class; read-out: S31 OOcyte Inhibition at 100 uM (%)
# AM2 S31 (wild-type serine at position 31 in the M2 protein), influenza virus A/Udorn/72, sequence (P0DOF5 whole entry, looked up): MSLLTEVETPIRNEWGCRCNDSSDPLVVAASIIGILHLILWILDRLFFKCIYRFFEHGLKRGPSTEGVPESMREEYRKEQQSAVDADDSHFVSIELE
row,SMILES,inhibition at 100 µM
1,"OC12CC3CC(C1)CC(NCc1ccc(-c4ccccc4)s1)(C3)C2 [Example 191a, 3-[(5-Phenyl-thiophen-2-ylmethyl)-amino]adamantan-1-ol]",0 to 30%
2,"Oc1cc(-c2ccccc2)ccc1CNC12CC3CC(CC(C3)C1)C2 [Example 47a, 4-(Adamantan-1-ylaminomethyl)-biphenyl-3-ol]",0 to 30%
3,"c1ccc(-c2nc(CNC34CC5CC(CC(C5)C3)C4)no2)cc1 [Example 131a, N-((5-phenyl-1,2,4-oxadiazol-3-yl)methyl)adamantan-1-amine]",0 to 30%
4,"Cc1cccc2nc(CNC34CC5CC(CC(C5)C3)C4)[nH]c12 [Example 184a, Adamantan-1-yl-(7-methyl-1H-benzoimidazol-2-ylmethyl)-amine]",0 to 30%
5,"Fc1ccc(-c2cc(CNC34CC5CC(CC(C5)C3)C4)no2)cc1 [Example 118a, N-((5-(4-fluorophenyl)isoxazol-3-yl)methyl)adamantan-1-amine]",0 to 30%
6,"OCc1cc(Br)ccc1CNC12CC3CC(CC(C3)C1)C2 [Example 52a, [2-(Adamantan-1-ylaminomethyl)-5-bromo-phenyl]methanol]",0 to 30%
7,"CC(C)(C)c1ccc(-c2noc(CNC34CC5CC(CC(C5)C3)C4)n2)cc1 [Example 124a, N-((3-(4-(tert-butyl)phenyl)-1,2,4-oxadiazol-5-yl)methyl)adamantan-1-amine]",0 to 30%
8,"c1cc(-c2ccc(CNC34CC5CC(CC(C5)C3)C4)s2)[nH]n1 [Example 158a, N-((5-(1H-pyrazol-5-yl)thiophen-2-yl)methyl)adamantan-1-amine]",0 to 30%
9,"Brc1ccc(-c2cc(CNC34CC5CC(CC(C5)C3)C4)on2)cc1 [Example 117a, N-((3-(4-bromophenyl)isoxazol-5-yl)methyl)adamantan-1-amine]",0 to 30%
10,"Cn1c(CNC23CC4CC(CC(C4)C2)C3)cc2sccc21 [Example 172a, Adamantan-1-yl-(4-methyl-4H-thieno[3,2-b]pyrrol-5-ylmethyl)-amine]",0 to 30%
11,CC(NC12CC3CC(CC(C3)C1)C2)c1cc2ccccc2s1 (stereo not shown) [Example 178a],31 to 95%
12,"Oc1cc(Br)ccc1CNC12CC3CC(CC(C3)C1)C2 [Example 50a, 2-(((3s,5s,7s)-adamantan-1-ylamino)methyl)-5-bromophenol]",31 to 95%
13,"Clc1ccc(-c2cc(CNC34CC5CC(CC(C5)C3)C4)no2)cc1 [Example 119a, N-((5-(4-chlorophenyl)isoxazol-3-yl)methyl)adamantan-1-amine]",0 to 30%
14,Cc1ccc(CNC23CC4CC(CC(C4)C2)C3)o1 [Example 67a],31 to 95%
15,"Brc1csc(CNC23CC4CC(CC(C4)C2)C3)c1 [Example 105a, N-((4-bromothiophen-2-yl)methyl)adamantan-1-amine]",31 to 95%
16,"c1csc(-c2nc(CNC34CC5CC(CC(C5)C3)C4)no2)c1 [Example 146a, N-((5-(thiophen-2-yl)-1,2,4-oxadiazol-3-yl)methyl)adamantan-1-amine]",0 to 30%

row,SMILES,inhibition at 100 µM
1,"c1ccc(-c2nc(CNC34CC5CC(CC(C5)C3)C4)cs2)cc1 [Example 132a, N-((2-phenylthiazol-4-yl)methyl)adamantan-1-amine]",0 to 30%
2,"COc1ccc(CNC23CC4CC(CC(C4)C2)C3)s1 [Example 75a, N-((5-methoxythiophen-2-yl)methyl)adamantan-1-amine]",31 to 95%
3,"c1ccc(-c2nc(CNC34CC5CC(CC(C5)C3)C4)c[nH]2)cc1 [Example 114a, N-((2-phenyl-1H-imidazol-4-yl)methyl)adamantan-1-amine]",31 to 95%
4,"c1coc(-c2ccc(CNC34CC5CC(CC(C5)C3)C4)s2)c1 [Example 136a, N-((5-(Furan-2-yl)thiophen-2-yl)methyl)adamantan-1-amine]",0 to 30%
5,"Brc1ccc(CNC23CC4CC(CC(C4)C2)C3)o1 [Example 87a, Adamantan-1-yl-(5-bromo-furan-2-ylmethyl)-amine]",31 to 95%
6,"C1CCC(c2nc(CNC34CC5CC(CC(C5)C3)C4)no2)C1 [Example 109a, N-((5-cyclopentyl-1,2,4-oxadiazol-3-yl)methyl)adamantan-1-amine]",0 to 30%
7,"c1cncc(-c2noc(CNC34CC5CC(CC(C5)C3)C4)n2)c1 [Example 135a, Adamantan-1-yl-(3-pyridin-3-yl-[1,2,4]oxadiazol-5-ylmethyl)-amine]",0 to 30%
8,"COc1ccc(-c2ccc(CNC34CC5CC(CC(C5)C3)C4)s2)cc1 [Example 113a, N-((5-(4-methoxyphenyl)thiophen-2-yl)methyl)adamantan-1-amine]",0 to 30%
9,"c1cc(C2CC2)sc1CNC12CC3CC(CC(C3)C1)C2 [Example 108a, N-((5-cyclopropylthiophen-2-yl)methyl)adamantan-1-amine]",0 to 30%
10,"Clc1ccc(CNC23CC4CC(CC(C4)C2)C3)s1 [Example 79a, N-((5-chlorothiophen-2-yl)methyl)adamantan-1-amine]",31 to 95%
11,"c1csc(-c2noc(CNC34CC5CC(CC(C5)C3)C4)n2)c1 [Example 148a, N-((3-(thiophen-2-yl)-1,2,4-oxadiazol-5-yl)methyl)adamantan-1-amine]",0 to 30%
12,"Cc1ccc(-c2nc(CNC34CC5CC(CC(C5)C3)C4)no2)cc1 [Example 128a, N-((5-(p-tolyl)-1,2,4-oxadiazol-3-yl)methyl)adamantan-1-amine]",0 to 30%
13,"Clc1cccc2cc(CNC34CC5CC(CC(C5)C3)C4)sc12 [Example 183a, Adamantan-1-yl-(7-chloro-benzo[b]thiophen-2-ylmethyl)-amine]",31 to 95%
14,Oc1cc(-c2ccoc2)ccc1CNC12CC3CC(CC(C3)C1)C2 [Example 46a],0 to 30%
15,"COc1ccc(-c2nc(CNC34CC5CC(CC(C5)C3)C4)no2)cc1 [Example 126a, N-((5-(4-methoxyphenyl)-1,2,4-oxadiazol-3-yl)methyl)adamantan-1-amine]",0 to 30%

# Same assay, conditions: 100 uM; Xenopus oocytes; numeric value; read-out: S31 OOcyte Inhibition at 100 uM (%)
row,SMILES,inhibition at 100 µM
1,"c1cn(-c2ccc(CNC34CC5CC(CC(C5)C3)C4)cc2)cn1 [Example 36a, N-(4-(1H-imidazol-1-yl)benzyl)adamantan-1-amine]",16.1%

# Same assay, conditions: Table 1; 100 uM; Xenopus oocytes, pH 5.5, -20 mV; read-out: S31 OOcyte Inhibition at 100 uM (%)
row,SMILES,inhibition at 100 µM
1,"O=C(Oc1ccc(CNC23CC4CC(CC(C4)C2)C3)cc1)C1CC1 [Example 34, Cyclopropanecarboxylic acid 4-(adamantan-1-ylaminomethyl)-phenyl ester]",0 to 30%
2,"Oc1ccc(CNC23CC4CC(CC(C4)C2)C3)cc1 [Example 9, 4-(Adamantan-1-ylaminomethyl)-phenol]",31 to 95%
3,"CC(C)(C)CC(C)(C)NCc1ccc(O)cc1O [Example 112, 4-[(1,1,3,3-Tetramethyl-butylamino)-methyl]-benzene-1,3-diol]",31 to 95%
4,"CCOc1ccc(CNC23CC4CC(CC(C4)C2)C3)cc1 [Example 20, Adamantan-1-yl-(4-ethoxy-benzyl)-amine]",0 to 30%
5,"c1cc2cc(CNC34CC5CC(CC(C5)C3)C4)[nH]c2s1 [Example 82, Adamantan-1-yl-(6H-thieno[2,3-b]pyrrol-5-ylmethyl)-amine]",31 to 95%
6,c1cc2c(cc1CNC13CC4CC(CC(C4)C1)C3)OCO2 [Example 49],31 to 95%
7,"[O-][n+]1ccc(CNC23CC4CC(CC(C4)C2)C3)cc1 [Example 74, Adamantan-1-yl-(1-oxy-pyridin-4-ylmethyl)-amine]",0 to 30%
8,"Fc1ccc(CNC23CC4CC(CC(C4)C2)C3)c(F)c1 [Example 54, Adamantan-1-yl-(2,4-difluoro-benzyl)-amine]",31 to 95%
9,"O=[N+]([O-])c1ccccc1CNC12CC3CC(CC(C3)C1)C2 [Example 30, Adamantan-1-yl-(2-nitro-benzyl)-amine]",31 to 95%
10,"Oc1cc(OCc2ccccc2)ccc1CNC12CC3CC(CC(C3)C1)C2 [Example 57, 2-(Adamantan-1-ylaminomethyl)-5-benzyloxy-phenol]",31 to 95%
11,"c1ccc(CNC23CC4CC(CC(C4)C2)C3)nc1 [Example 72, Adamantan-1-yl-pyridin-2-ylmethyl-amine]",0 to 30%

# Same assay, conditions: Table 3; 100 uM; Xenopus oocytes, pH 5.5, -20 mV; read-out: S31 OOcyte Inhibition at 100 uM (%)
row,SMILES,inhibition at 100 µM
1,"Clc1ccccc1-c1ccc(CNC23CC4CC(CC(C4)C2)C3)nc1 [Example 72b, Adamantan-1-yl-[5-(2-chloro-phenyl)-pyridin-2-ylmethyl]-amine]",0 to 30%
2,"Cc1csc(-c2ccc(CNC34CC5CC(CC(C5)C3)C4)cc2)c1 [Example 5b, N-(4-(4-Methylthiophen-2-yl)benzyl)adamantan-1-amine]",0 to 30%
3,"COc1ccc(-c2cc(CNC34CC5CC(CC(C5)C3)C4)no2)c(OC)c1 [Example 41b, N-((5-(2,4-dimethoxyphenyl)isoxazol-3-yl)methyl)adamantan-1-amine]",0 to 30%
4,"c1nc(C2CCCCC2)ncc1CNC12CC3CC(CC(C3)C1)C2 [Example 61b, N-((2-cyclohexylpyrimidin-5-yl)methyl)adamantan-1-amine]",0 to 30%
5,"CC(NC12CC3CC(CC(C3)C1)C2)c1ccc(-c2ccccc2)cc1 (stereo not shown) [Example 4b, N-(1-([1,1′-biphenyl]-4-yl)ethyl)adamantan-1-amine]",31 to 95%
6,"c1csc(-c2ccc(CNC34CC5CC(CC(C5)C3)C4)nn2)c1 [Example 71b, Adamantan-1-yl-(6-thiophen-2-yl-pyridazin-3-ylmethyl)-amine]",0 to 30%
7,Oc1cc(-c2ccsc2)ccc1CNC12CC3CC(CC(C3)C1)C2 [Example 8b],0 to 30%
8,Oc1cc(I)ccc1CNC12CC3CC(CC(C3)C1)C2 [Example 2b],31 to 95%
9,"CC(C)c1cc(CNC23CC4CC(CC(C4)C2)C3)no1 [Example 27b, N-((5-isopropylisoxazol-3-yl)methyl)adamantan-1-amine]",0 to 30%
